Measured values as given in patent US7981915B2, “Methods for modulating PPAR biological activity for the treatment of diseases caused by mutations in the CFTR gene” (Beth Israel Deaconess Medical Center, priority 2003, dated 2011).

How the values were obtained:
IL-6 [1] = assay: LPS-induced IL-6 secretion from peritoneal macrophages after in vivo DHA pretreatment; design: species or system mice; settings: CF peritoneal macrophages; oral DHA pretreatment 40 mg/day for 10 days
Method: (§1) Cftr^−/− exon 10 knockout mice and wild-type (WT) littermates were maintained on peptamen (as described above). Peritoneal macrophages were induced by intraperitoneal injection of 2 ml thioglycollate broth followed by harvesting of the macrophages 4 days after injection. For studies determining the effect of in vivo pretreatment of DHA, cftr^−/− mice were given 40 mg DHA/day for 10 days. For in vitro experiments, harvested macrophages were plated in RPMI medium with 10% serum and incubated for 12 hours with media alone or with DHA (5 μM), EPA (5 μM) the PPAR agonist Wy14643 (50 μM) or the PPAR agonist rosiglitazone (10 μM). The cells were washed and then stimulated with 0-10000 ng/ml LPS for 4.5 hours. TNFα and IL-6 secretion were measured by ELISA. Fatty acids were analyzed by GC/MS.

PPARα mRNA [2] = assay: Liver PPARα mRNA by quantitative RT-PCR (DSS colitis / DHA); format: in vivo, mice
Method: (§2) On day 40, WT and cftr^−/− mice were fed Peptamen alone or Peptamen plus 125 mg DSS/day (MP Biomedicals, Aurora, Ohio) for 5 days followed by 9 days of 85 mg DSS/day as previously described for the genesis of bile duct injury (Blanco, P. G. et al., supra). The amount of DSS in Peptamen was equally measured for WT and cftr^−/− mice. The volume of Peptamen administered (20 ml) was measured on a daily basis. There was no difference in Peptamen intake between WT and cftr^−/− mice. The mean weight of WT mice at the start of DSS treatment was 20.5 g (range 14.5-26 g), and the mean weight of cftr^−/− mice was 18.9 g (range 15.5-23.5 g). These values were not statistically different between WT and cftr^−/− mice. […] There was no difference in weight lost during DSS treatment comparing WT and cftr^−/− mice. Additional mice from these groups were given DHA (Pure Encapsulations, Sudbury, Mass.) prepared as a stable emulsion in Peptamen, at a dose of 40 mg per day for 5 days before and continued for 14 days during administration of the DSS. Bile duct injury was quantified, as previously described, by examining histological features of epithelial injury, bile duct proliferation, and bile duct angulation (Blanco et al., supra). To determine whether a complete absence of PPARα was responsible for the bile duct injury, 5 PPARα^−/− mice were treated with 5% DSS in drinking water for 7 days to induce colitis (Okayasu et al., Gastroenterology, 98:694-702, 1990). PPARγ^−/− mice are not viable and thus were not tested.
After each specific treatment, the mice were euthanized with carbon dioxide. Tissues were snap frozen in RNAlater (Ambion, Austin, Tex.) for RNA extraction (Barrett et al., Nat Genet, 23:32-33, 1999). PPAR mRNA analyses were performed by quantitative RT-PCR. Total RNA from cftr^−/− and WT tissues was prepared using the RNA STAT-60 isolation reagent (Tel-Test, Friendswood, Tex.) and quantified spectrophotometrically. Quantitative PCR was performed in an ABI Prism 7700 Sequence Detector (Applied Biosystems, Foster City, Calif.) using a RT-PCR master mix kit (Applied Biosystems) according to the manufacturer's instructions. PCR primers and PPAR FAM-labeled TaqMan probes were from Integrated DNA Technologies (Coralville, Iowa). The oligonucleotide sequences used for PPARγ were the following: PPARγ exon 2 FW 5′-TCACAAGAGCTGACCCAATGGT-3′ (SEQ ID NO: 1), PPARγ exon 2 RV 5′-ATAATAAGGTGGAGATGCAGGTTCTAC-3′ (SEQ ID NO: 2), PPARγ probe 5′-FAM-CTGAAGCTCCAAGAATACCAAAGTGCGATC-TAMRA-3′ (SEQ ID NO: 3). The sequences used for PPARα were the following: PPARα FW 5′-TATTCGGCTGAAGCTGGTGTAC-3′ (SEQ ID NO: 9), PPARα RV 5′-CTGGCATTTGTTCCGGTTCT-3′ (SEQ ID NO: 10), PPARα probe 5′-CTGAATCTTGCAGCTCCGATCACACTTG-3′ (SEQ ID NO: 11). Levels of mRNA were normalized to 18s ribosomal RNA (ribosomal RNA control reagents, Applied Biosystems) quantified simultaneously to PPAR in a multiplex RT-PCR reaction. Thermocycler conditions used were—Stage 1: 48° C./30 minutes; Stage 2: 95° C./10 minutes; Stage 3: 40 cycles of 95° C./15 seconds and 60° C./60 seconds. All samples were analyzed in duplicate.

TNFα = assay: LPS-induced TNFα secretion from peritoneal macrophages incubated in vitro with PPAR agonists; format: cell-based, mice; settings: in vitro 12 hours, DHA 5 μM, Wy14643 50 μM, rosiglitazone 10 μM
Method: as §1

PPARα mRNA [3] = settings: rat liver; cited from earlier work
IL-6 [4] = assay: LPS-induced IL-6 secretion from peritoneal macrophages incubated in vitro with PPAR agonists; format: cell-based, mice; settings: CF macrophages; in vitro 12 hours; Wy14643 50 μM, rosiglitazone 10 μM; 100 ng/ml LPS
PPARα = target: T1, PPARα (Mus musculus, UniProt P23204); assay: Western blot of PPARα in nuclear and cytosolic liver extracts; format: in vivo; settings: 3 mice per group
T1 construct: from tissue; host or cells: mouse liver homogenate (WT and cftr-/- C57/BL6)
T1 sequence (P23204 1-468): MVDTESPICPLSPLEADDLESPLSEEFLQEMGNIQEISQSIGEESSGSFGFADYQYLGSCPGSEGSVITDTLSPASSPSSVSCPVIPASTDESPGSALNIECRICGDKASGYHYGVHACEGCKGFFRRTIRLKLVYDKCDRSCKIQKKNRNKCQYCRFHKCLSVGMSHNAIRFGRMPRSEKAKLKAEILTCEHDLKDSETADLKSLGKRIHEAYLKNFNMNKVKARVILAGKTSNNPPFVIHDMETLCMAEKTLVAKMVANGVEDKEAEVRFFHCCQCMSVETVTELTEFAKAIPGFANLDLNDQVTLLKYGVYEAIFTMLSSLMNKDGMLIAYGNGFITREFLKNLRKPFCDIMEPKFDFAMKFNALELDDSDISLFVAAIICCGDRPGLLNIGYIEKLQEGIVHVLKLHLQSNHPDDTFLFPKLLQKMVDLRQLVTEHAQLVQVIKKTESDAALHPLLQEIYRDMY
Method: as §2, with “Additional mice from these groups were given DHA (Pure Encapsulations, Sudbury, Mass.) prepared as a stable emulsion in Peptamen, at a dose of 40 mg per day for 5 days before and continued for 14 days during administration of the DSS.” left out, “To determine whether a complete absence of PPARα was responsible for the bile duct injury, 5 PPARα^−/− mice were treated with 5% DSS in drinking water for 7 days to induce colitis (Okayasu et al., Gastroenterology, 98:694-702, 1990). PPARγ^−/− mice are not viable and thus were not tested.” left out
For western blotting, nuclear and cytoplasmic extracts were prepared as described previously (Ollero et al., supra). […] Protein concentration was measured in all samples by the Bradford protein assay (Bio-Rad, Hercules, Calif.). […]

PPARγ mRNA = assay: Liver PPARγ mRNA by quantitative RT-PCR (DSS colitis / DHA); format: in vivo; settings: WT and cftr−/− mice; DSS in the absence or presence of DHA; to undetectable levels
Method: On day 40, WT and cftr^−/− mice were fed Peptamen alone or Peptamen plus 125 mg DSS/day (MP Biomedicals, Aurora, Ohio) for 5 days followed by 9 days of 85 mg DSS/day as previously described for the genesis of bile duct injury (Blanco, P. G. et al., supra). The amount of DSS in Peptamen was equally measured for WT and cftr^−/− mice. The volume of Peptamen administered (20 ml) was measured on a daily basis. There was no difference in Peptamen intake between WT and cftr^−/− mice. The mean weight of WT mice at the start of DSS treatment was 20.5 g (range 14.5-26 g), and the mean weight of cftr^−/− mice was 18.9 g (range 15.5-23.5 g). […] Bile duct injury was quantified, as previously described, by examining histological features of epithelial injury, bile duct proliferation, and bile duct angulation (Blanco et al., supra). […]
After each specific treatment, the mice were euthanized with carbon dioxide. […] PPAR mRNA analyses were performed by quantitative RT-PCR. Total RNA from cftr^−/− and WT tissues was prepared using the RNA STAT-60 isolation reagent (Tel-Test, Friendswood, Tex.) and quantified spectrophotometrically. Quantitative PCR was performed in an ABI Prism 7700 Sequence Detector (Applied Biosystems, Foster City, Calif.) using a RT-PCR master mix kit (Applied Biosystems) according to the manufacturer's instructions. […] All samples were analyzed in duplicate.

[5] = WT mice, single treatment, compared to untreated
[6] = cftr−/− mice, single treatment, compared to untreated

With `CC/C=C\C/C=C\C/C=C\C/C=C\C/C=C\C/C=C\CCC(=O)O` [DHA, Docosahexaenoic Acid] the “LPS-induced IL-6 secretion” value (IL-6 [1]) was “no effect”, the “increase in liver PPARα mRNA” value (PPARα mRNA [2]; WT mice, combination of DSS and DHA, compared to no DSS and no DHA) was 10.4 fold and the “increase in liver PPARα mRNA” value (PPARα mRNA [2]; [5]) was 12.1 fold. For the same molecule, the “increase in liver PPARα mRNA” value (PPARα mRNA [2]; cftr−/− mice, combination of DSS and DHA, compared to DSS only, not statistically significant) was 2.7 fold, the “increase in liver PPARα mRNA” value (PPARα mRNA [2]; cftr−/− mice, combination of DSS and DHA, compared to no DSS and no DHA) was 4.3 fold and the “increase in liver PPARα mRNA” value (PPARα mRNA [2]; [6]) was 7.0 fold.
For `CC/C=C\C/C=C\C/C=C\C/C=C\C/C=C\CCCC(=O)O` [EPA, eicosapentaenoic acid], the “decrease in LPS induced TNFα secretion” value (TNFα; CF macrophages, EPA 5 μM, 100 ng/ml LPS) was “no effect”.
For `Cc1cccc(Nc2cc(Cl)nc(SCC(=O)O)n2)c1C` [Wy14643], the “decrease in LPS induced TNFα secretion” value (TNFα; WT macrophages) is given as “did not alter secretion” and the “PPARα mRNA levels” value (PPARα mRNA [3]) is given as “increase PPARα mRNA levels”.
For `CN(CCOc1ccc(CC2SC(=O)NC2=O)cc1)c1ccccn1` (stereo not shown) [rosiglitazone], the “decrease in LPS induced TNFα secretion” value (TNFα; WT macrophages) was 18% and the “decrease in LPS induced IL-6 secretion” value (IL-6 [4]) was “no effect”.
With dextran sodium sulfate [DSS] the “increase in liver PPARα mRNA” value (PPARα mRNA [2]; [5]) was 9.3 fold, the “increase in liver PPARα mRNA” value (PPARα mRNA [2]; [6]) was “no significant change” and the “PPARα nuclear/cytoplasmic ratio, liver (densitometry)” value (PPARα; WT mice) was 1.06±0.05. For the same molecule, the “PPARα nuclear/cytoplasmic ratio, liver (densitometry)” value (PPARα; cftr−/− mice) was 0.61±0.02 and the “liver PPARγ mRNA levels” value (PPARγ mRNA) was “markedly suppressed”.
